Data reported in US7897596B2, “Allosteric modulators of the A1 adenosine receptor” (King Pharmaceuticals Research & Development, Inc., priority 2006, dated 2011).

Target: T1, human A1 adenosine receptors (Homo sapiens, UniProt P30542)
T1 construct: expressed in transfected cells; host or cells: CHO cells (hCHO-A1 clone)
T1 sequence (P30542 1-326): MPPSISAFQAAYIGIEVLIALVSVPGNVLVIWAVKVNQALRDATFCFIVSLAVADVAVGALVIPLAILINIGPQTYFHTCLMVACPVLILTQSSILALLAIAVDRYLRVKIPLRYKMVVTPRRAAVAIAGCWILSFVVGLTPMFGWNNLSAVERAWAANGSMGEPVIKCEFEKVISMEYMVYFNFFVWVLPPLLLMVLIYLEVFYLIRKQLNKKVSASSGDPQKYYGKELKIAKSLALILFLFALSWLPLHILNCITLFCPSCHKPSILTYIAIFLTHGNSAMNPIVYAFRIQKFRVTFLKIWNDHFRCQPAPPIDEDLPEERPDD
Assay: Saturation binding of [3H]CCPA to hCHO-A1
Protocol: The hCHO-A1, hCHO-A2A and hCHO-A3 cell clones are grown adherently and maintained in Dulbecco's modified Eagle's medium with nutrient mixture F12, containing 10% fetal calf serum, penicillin (100 U/mL), streptomycin (100 μg/mL), L-glutamine (2 mM), geneticine (G418, 0.2 mg/mL) at 37° C. in 5% CO2/95% air (Klotz et al. Naunyn-Schmied. Arch Pharm. 1998, 357, 1-9). Cells are split two or three times weekly at a ratio of between 1:5 and 1:10. For membrane preparation the culture medium is removed. The cells are washed with PBS and scraped off T75 flasks in ice-cold hypotonic buffer (5 mM Tris HCl, 2 mM EDTA, pH 7.4). The cell suspension is homogenized with Polytron and the homogenate is spun for 10 min at 1,000×g. […] The protein concentration is determined according to a Bio-Rad method (Bradford, 1976) with bovine albumin as a standard reference.
To determine the effect of the compounds of the present invention on the binding to A1, A2A and A3 receptors, membranes from hCHO-A1, hCHO-A2A, hCHO-A3 are incubated in a buffer solution in the absence and in the presence of the examined compounds. […] Bound and free radioactivity are separated by filtering the assay mixture through Whatman GF/B glass fibre filters using a Micro-mate 196 cell harvester (Packard Instrument Company). The filter bound radioactivity was counted on Top Count Microplate Scintillation Counter (efficacy […]) with Micro 20. […]

increase in the BMAX value of the agonist [3H]CCPA: about 6 fold
SMILES: Nc1scc(CN2CCC3(CC2)Oc2cccc(F)c2O3)c1C(=O)c1ccc(Cl)cc1 [Example 60, {2-Amino-4-(4-fluorospiro[benzo[d][1,3]-dioxole-2,4′-piperidine]-1′-ylmethyl)thiophen-3-yl}(4-chlorophenyl)methanone]
